Consider 26 molecules from ChEMBL document CHEMBL4819047, “Discovery of a new class of multi-target heterocycle piperidine derivatives as potential antipsychotics with pro-cognitive effect” (Bioorg Med Chem Lett, 2021).

Among the targets are D(2) dopamine receptor (Homo sapiens, UniProt P14416); Histamine H3 receptor (Homo sapiens, UniProt Q9Y5N1); D(3) dopamine receptor (Homo sapiens, UniProt P35462).
Series [1] has as its target 5-hydroxytryptamine receptor 2A (Homo sapiens, UniProt P28223).
In series [2] the target is T1, 5-hydroxytryptamine receptor 1A (Homo sapiens, UniProt P08908).
T1 sequence (P08908 whole entry): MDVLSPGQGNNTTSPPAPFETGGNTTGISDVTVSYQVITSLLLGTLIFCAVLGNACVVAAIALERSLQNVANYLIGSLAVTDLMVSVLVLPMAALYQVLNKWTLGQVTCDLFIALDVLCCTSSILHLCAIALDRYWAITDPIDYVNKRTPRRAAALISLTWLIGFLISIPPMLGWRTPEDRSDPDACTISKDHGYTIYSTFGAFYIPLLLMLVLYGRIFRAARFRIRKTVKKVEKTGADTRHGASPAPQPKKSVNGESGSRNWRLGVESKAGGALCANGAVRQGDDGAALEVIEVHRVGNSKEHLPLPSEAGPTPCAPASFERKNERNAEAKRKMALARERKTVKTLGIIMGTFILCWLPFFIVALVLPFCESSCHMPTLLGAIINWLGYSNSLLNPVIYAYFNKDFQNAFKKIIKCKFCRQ

For a further series, the target named is Histamine H1 receptor (Homo sapiens, UniProt P35367). It is filed as ADME.
The target in series [3] is T2, 5-hydroxytryptamine receptor 2C (Homo sapiens, UniProt P28335).
T2 sequence (P28335 whole entry): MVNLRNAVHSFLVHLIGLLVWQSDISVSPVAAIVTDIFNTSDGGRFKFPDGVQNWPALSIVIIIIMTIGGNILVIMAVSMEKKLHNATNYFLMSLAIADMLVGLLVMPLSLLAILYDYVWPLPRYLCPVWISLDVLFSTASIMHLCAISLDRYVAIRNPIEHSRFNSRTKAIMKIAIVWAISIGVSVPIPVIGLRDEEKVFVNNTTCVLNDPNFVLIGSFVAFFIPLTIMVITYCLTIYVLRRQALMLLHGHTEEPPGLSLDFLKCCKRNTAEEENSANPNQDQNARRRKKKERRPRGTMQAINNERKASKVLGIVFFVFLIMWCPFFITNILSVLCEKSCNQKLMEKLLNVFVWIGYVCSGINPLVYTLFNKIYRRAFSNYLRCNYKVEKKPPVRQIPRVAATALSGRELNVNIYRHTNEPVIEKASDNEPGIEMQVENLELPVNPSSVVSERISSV

Series [4] concerns the target T3, Alpha-1A adrenergic receptor (Homo sapiens, UniProt P35348).
T3 sequence (P35348 whole entry): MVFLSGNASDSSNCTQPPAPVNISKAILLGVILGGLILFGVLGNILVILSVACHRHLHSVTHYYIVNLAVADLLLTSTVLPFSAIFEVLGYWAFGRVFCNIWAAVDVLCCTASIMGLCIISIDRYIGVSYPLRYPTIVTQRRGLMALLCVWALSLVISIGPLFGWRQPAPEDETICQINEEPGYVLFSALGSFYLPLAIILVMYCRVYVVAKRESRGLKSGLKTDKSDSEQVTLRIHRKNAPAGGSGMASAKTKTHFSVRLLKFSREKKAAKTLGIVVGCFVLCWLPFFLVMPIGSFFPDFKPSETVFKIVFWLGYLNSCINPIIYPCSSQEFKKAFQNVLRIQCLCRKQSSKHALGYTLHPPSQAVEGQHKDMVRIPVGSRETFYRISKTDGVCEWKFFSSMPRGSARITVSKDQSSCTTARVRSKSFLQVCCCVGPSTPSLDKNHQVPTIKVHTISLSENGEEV
Description: Binding affinity to alpha1 adrenoceptor (unknown origin)

The target in series [5] is 5-hydroxytryptamine receptor 6 (Homo sapiens, UniProt P50406).
Series [6] has as its target Voltage-gated inwardly rectifying potassium channel KCNH2 (Homo sapiens, UniProt Q12809).
Description: Inhibition of human ERG by automated patch method relative to control
For series [7] the following is noted: mouse, in vivo, po.
Description: Induction of catalepsy in po dosed mouse by Horizontal grid and elevated bar test
For series [8], the species on record is Mus musculus. In words: animal or person. The note with it: po.
Description: Antipsychotic activity in po dosed mouse assessed as suppression of apomorphine-induced climbing behaviour
Series [9] is filed under the species Mus musculus. In words: animal or person. As to conditions: po. The source holds these as a separate data set.
Description: Antipsychotic activity in po dosed mouse assessed as reduction in MK-801-induced hyperlocomotor activity
The species entered for a further series is Rattus norvegicus. In words: animal or person. The note with it: po.

Structures are written as SMILES.

Histamine H1 receptor, sequence (P35367 whole entry): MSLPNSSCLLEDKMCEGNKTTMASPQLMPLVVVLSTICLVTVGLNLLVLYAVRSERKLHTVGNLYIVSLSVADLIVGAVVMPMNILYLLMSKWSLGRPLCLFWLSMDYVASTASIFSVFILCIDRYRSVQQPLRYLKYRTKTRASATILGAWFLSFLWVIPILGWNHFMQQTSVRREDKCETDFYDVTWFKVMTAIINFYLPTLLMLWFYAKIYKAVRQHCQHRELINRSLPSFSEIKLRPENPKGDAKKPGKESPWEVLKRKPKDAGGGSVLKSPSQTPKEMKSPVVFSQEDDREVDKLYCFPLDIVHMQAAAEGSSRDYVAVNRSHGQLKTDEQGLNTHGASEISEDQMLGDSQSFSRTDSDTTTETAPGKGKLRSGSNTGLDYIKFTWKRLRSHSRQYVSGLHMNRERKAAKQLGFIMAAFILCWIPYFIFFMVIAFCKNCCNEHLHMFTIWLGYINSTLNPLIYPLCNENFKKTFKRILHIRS
Histamine H3 receptor, sequence (Q9Y5N1 whole entry): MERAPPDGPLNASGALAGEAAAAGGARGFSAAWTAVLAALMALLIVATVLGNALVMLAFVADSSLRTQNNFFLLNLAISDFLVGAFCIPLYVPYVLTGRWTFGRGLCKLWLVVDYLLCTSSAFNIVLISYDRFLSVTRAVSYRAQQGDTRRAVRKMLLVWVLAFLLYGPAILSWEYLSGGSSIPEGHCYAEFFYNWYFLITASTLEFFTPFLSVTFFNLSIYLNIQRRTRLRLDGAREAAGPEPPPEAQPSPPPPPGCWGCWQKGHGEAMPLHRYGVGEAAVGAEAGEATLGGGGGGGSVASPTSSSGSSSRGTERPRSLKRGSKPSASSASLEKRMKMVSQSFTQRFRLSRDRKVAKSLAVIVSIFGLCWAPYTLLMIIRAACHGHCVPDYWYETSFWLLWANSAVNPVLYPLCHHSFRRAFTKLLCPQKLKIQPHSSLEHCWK
Voltage-gated inwardly rectifying potassium channel KCNH2, sequence (Q12809 whole entry): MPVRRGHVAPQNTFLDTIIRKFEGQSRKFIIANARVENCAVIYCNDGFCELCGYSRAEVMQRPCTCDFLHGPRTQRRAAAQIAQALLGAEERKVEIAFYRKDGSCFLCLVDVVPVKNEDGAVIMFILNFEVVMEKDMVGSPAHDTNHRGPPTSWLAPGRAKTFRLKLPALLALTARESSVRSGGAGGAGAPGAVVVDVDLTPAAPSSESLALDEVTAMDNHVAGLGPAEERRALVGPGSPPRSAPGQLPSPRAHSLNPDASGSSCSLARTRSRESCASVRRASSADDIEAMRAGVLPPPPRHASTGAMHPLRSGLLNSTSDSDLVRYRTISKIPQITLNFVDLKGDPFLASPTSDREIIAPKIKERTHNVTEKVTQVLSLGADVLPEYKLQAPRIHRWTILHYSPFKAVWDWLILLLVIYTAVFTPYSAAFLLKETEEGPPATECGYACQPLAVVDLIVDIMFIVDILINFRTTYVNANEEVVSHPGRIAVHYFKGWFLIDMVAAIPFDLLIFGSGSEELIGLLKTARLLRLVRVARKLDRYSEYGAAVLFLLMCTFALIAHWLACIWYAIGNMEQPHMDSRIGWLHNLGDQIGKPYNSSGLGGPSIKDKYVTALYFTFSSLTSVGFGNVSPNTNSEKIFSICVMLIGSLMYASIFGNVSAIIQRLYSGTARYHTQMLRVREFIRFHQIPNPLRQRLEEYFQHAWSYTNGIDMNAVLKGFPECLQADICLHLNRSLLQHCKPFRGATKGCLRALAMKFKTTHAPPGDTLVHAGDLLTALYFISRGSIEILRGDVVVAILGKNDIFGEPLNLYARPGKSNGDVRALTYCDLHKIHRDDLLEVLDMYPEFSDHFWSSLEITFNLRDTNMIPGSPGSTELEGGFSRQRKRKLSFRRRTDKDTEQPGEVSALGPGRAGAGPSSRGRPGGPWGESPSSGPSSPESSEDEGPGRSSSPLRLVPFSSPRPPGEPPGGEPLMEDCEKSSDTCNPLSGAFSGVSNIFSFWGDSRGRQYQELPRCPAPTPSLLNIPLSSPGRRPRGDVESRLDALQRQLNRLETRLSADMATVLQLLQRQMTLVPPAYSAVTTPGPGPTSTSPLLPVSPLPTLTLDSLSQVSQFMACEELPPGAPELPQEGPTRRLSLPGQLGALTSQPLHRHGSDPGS
5-hydroxytryptamine receptor 6, sequence (P50406 whole entry): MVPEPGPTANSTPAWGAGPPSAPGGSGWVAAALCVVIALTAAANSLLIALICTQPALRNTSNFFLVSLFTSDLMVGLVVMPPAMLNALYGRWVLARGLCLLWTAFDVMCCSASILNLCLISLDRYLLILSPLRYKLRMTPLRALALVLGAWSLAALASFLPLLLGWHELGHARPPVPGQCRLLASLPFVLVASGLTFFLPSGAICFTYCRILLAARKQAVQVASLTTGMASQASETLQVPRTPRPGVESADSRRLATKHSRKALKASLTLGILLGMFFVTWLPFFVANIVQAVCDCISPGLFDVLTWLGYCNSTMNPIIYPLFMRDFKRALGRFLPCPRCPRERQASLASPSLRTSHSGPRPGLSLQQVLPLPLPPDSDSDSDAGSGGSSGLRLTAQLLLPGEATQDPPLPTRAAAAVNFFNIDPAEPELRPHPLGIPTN
D(3) dopamine receptor, sequence (P35462 whole entry): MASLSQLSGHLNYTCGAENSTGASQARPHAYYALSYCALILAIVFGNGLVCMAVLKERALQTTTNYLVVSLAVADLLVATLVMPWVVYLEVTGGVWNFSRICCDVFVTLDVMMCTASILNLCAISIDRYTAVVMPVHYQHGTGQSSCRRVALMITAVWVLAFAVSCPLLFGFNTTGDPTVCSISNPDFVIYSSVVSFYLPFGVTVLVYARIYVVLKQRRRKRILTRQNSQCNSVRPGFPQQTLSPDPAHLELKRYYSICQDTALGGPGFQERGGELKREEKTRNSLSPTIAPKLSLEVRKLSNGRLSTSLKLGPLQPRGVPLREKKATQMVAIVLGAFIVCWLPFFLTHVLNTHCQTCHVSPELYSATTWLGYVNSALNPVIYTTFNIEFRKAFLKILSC
5-hydroxytryptamine receptor 2A, sequence (P28223 whole entry): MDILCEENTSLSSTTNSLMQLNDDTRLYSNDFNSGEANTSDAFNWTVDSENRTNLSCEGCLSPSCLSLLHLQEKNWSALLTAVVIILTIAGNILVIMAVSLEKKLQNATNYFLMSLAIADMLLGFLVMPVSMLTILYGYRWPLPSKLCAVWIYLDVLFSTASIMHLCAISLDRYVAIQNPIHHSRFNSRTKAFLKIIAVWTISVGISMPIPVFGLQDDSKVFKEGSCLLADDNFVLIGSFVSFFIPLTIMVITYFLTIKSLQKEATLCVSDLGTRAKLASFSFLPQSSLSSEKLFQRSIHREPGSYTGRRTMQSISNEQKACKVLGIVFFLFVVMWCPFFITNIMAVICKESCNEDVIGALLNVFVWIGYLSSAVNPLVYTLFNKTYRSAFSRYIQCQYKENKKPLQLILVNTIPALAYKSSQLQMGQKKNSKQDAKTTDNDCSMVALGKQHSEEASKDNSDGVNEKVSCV
D(2) dopamine receptor, sequence (P14416 whole entry): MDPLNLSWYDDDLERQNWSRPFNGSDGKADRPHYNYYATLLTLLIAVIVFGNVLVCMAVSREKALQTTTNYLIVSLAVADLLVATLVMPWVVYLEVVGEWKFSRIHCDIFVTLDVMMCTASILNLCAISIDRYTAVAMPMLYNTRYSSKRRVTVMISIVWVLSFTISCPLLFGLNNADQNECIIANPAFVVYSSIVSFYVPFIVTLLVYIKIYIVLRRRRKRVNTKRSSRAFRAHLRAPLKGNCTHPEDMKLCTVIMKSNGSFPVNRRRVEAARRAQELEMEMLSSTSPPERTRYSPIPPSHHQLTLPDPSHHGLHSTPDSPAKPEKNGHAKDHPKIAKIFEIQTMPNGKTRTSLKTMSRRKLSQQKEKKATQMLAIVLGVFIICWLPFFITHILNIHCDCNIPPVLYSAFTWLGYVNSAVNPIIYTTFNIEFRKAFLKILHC
Description for D(2) dopamine receptor: Binding affinity to dopamine D2 receptor (unknown origin)
Description for D(3) dopamine receptor: Binding affinity to dopamine D3 receptor (unknown origin)
Description for Histamine H1 receptor: Binding affinity to histamine H1 receptor (unknown origin)
Description for Histamine H3 receptor: Binding affinity to histamine H3 receptor (unknown origin)
Description for Rattus norvegicus: Antipsychotic activity in po dosed rat assessed as suppression in conditioned avoidance response by CAR test

What is called Ki is the dissociation constant of the complex between target and ligand, obtained from inhibition or displacement. As for `Fc1ccc2c(C3CCN(CCCOc4ccc(CN5CCOCC5)cc4Cl)CC3)noc2c1`, the Ki at D(2) dopamine receptor is 2.5 nM; in series [1], 5.7 nM; in series [2], 105 nM; at Histamine H3 receptor, 149 nM.
In the case of `Fc1ccc2c(C3CCN(CCCOc4ccc(CN5CCCC5)cc4)CC3)noc2c1`, the Ki at D(2) dopamine receptor was 12.2 nM; in [1], 8.6 nM; in series [2], 81.6 nM; at Histamine H3 receptor, 93.7 nM.
The corresponding values for `Cc1cc(OCCCN2CCC(c3noc4cc(F)ccc34)CC2)ccc1CN1CCOCC1` are 3.1 nM, 5.1 nM, 100 nM and 164 nM.
Turning to `CC1CCN(CCc2ccc(OCCCN3CCC(c4noc5cc(F)ccc45)CC3)cc2)CC1`, the Ki on D(2) dopamine receptor is 7.4 nM; in [1], 42.9 nM; in series [2], 9.6 nM; at Histamine H3 receptor, 11.9 nM.
The corresponding values for `Cc1cc(OCCCN2CCC(c3noc4cc(F)ccc34)CC2)ccc1CN1CCCC1` are 12.6 nM, 11.5 nM, 89.3 nM and 113 nM.
As to `Fc1ccc2c(C3CCN(CCCOc4ccc(CN5CCCCC5)cc4F)CC3)noc2c1`, the Ki was found to be 10.3 nM on D(2) dopamine receptor, 6.5 nM in [1], 90.6 nM in [2] and 270 nM at Histamine H3 receptor.
For `O=c1ccc(OCCCN2CCC(c3noc4cc(F)ccc34)CC2)nn1-c1c(F)cccc1F`, the inhibition constant (Ki) on D(2) dopamine receptor was 5 nM; in series [1] it was 0.3 nM; at Histamine H1 receptor, 2000 nM; at D(3) dopamine receptor, 35.7 nM; in series [2] it was 5.9 nM; in [3], 1580 nM. Further, the inhibitory constant (Ki) in series [4] stood at 337 nM.
As to `Fc1ccc2c(C3CCN(CCCCOc4ccc(CN5CCOCC5)cc4)CC3)noc2c1`, the Ki on D(2) dopamine receptor was 2 nM; in series [1] it was 4.5 nM; in series [2] it was 95.4 nM; on Histamine H3 receptor it was 153 nM.
For orientation: IC50 means the concentration that inhibits the measured activity by half. As for `Fc1ccc2c(C3CCN(CCCOc4ccc(CCN5CCCCC5)cc4)CC3)noc2c1`, the Ki turned out to be 9.7 nM on D(2) dopamine receptor; 9.4 nM in series [1]; 1020 nM on Histamine H1 receptor; 15.2 nM at D(3) dopamine receptor; 7.4 nM in series [2]; 753 nM in series [3]. For the same molecule, the inhibitory constant (Ki) in series [5] came to 149 nM; in series [4] it was 536 nM; on Histamine H3 receptor it was 13.4 nM. The IC50 in series [6] was 2290 nM.
As for `Fc1ccc2c(C3CCN(CCCOc4ccc(CN5CCOCC5)c(Cl)c4)CC3)noc2c1`, the Ki on D(2) dopamine receptor came out at 5.4 nM; in [1] it was 6.3 nM; in [2] it was 152 nM; at Histamine H3 receptor it was 163 nM.
The matching figures for `COc1cc(CN2CCCCC2)ccc1OCCCN1CCC(c2noc3cc(F)ccc23)CC1`: 9.5 nM, 9 nM, 67.7 nM and 256 nM.
The matching figures for `COc1cc(CN2CCOCC2)ccc1OCCCN1CCC(c2noc3cc(F)ccc23)CC1`: 2.6 nM, 4.9 nM, 112 nM and 147 nM.
For the molecule `Fc1ccc2c(C3CCN(CCCOc4ccc(CN5CCOCC5)c(F)c4)CC3)noc2c1`, the Ki turned out to be 2 nM at D(2) dopamine receptor, 5.2 nM in series [1], 92.2 nM in [2] and 187 nM on Histamine H3 receptor.
With `Fc1ccc2c(C3CCN(CCCOc4ccc(CN5CCOCC5)cc4)CC3)noc2c1`, the Ki on D(2) dopamine receptor was 1.5 nM; in [1], 4.4 nM; in series [2], 85.5 nM; on Histamine H3 receptor it was 166 nM.
As for `Cc1cc(=O)oc2c(Cl)c(OCCCCN3CCC(c4noc5cc(F)ccc45)CC3)ccc12`, the Ki at D(2) dopamine receptor was found to be 2.6 nM; in [1], 0.3 nM; on Histamine H1 receptor it was 1130 nM; on D(3) dopamine receptor, 4.3 nM; in series [2] it was 3.3 nM; in series [3], 1700 nM. For the same molecule, the Ki in series [5] was 228 nM; in series [4], 2570 nM.
As for `COc1cc(CN2CCCC2)ccc1OCCCN1CCC(c2noc3cc(F)ccc23)CC1`, the Ki on D(2) dopamine receptor was determined as 6.2 nM; in series [1], 10.8 nM; in series [2], 77.9 nM; on Histamine H3 receptor, 151 nM.
The matching figures for `CC1CCN(CCc2ccc(OCCCCN3CCC(c4noc5cc(F)ccc45)CC3)cc2)CC1`: 2.7 nM, 5.1 nM, 4.4 nM and 15.8 nM.
The matching figures for `Fc1ccc2c(C3CCN(CCCOc4ccc(CN5CCOCC5)cc4F)CC3)noc2c1`: 1.9 nM, 5.6 nM, 100 nM and 195 nM.
Usually ED50 stands for the dose that gives a 50% effect, or the effect in half of the subjects. Lower therefore signals greater potency. As for `Cc1nc2n(c(=O)c1CCN1CCC(c3noc4cc(F)ccc34)CC1)CCCC2` [RISPERIDONE], the ED50 in series [7] was 1.6 mg/kg; in the series filed under Mus musculus [8], 0.02 mg/kg; in the series listed under Mus musculus [9], 0.04 mg/kg; in the series filed under Rattus norvegicus it was 0.6 mg/kg.
For the molecule `Fc1ccc2c(C3CCN(CCCOc4ccc(CN5CCCCC5)c(F)c4)CC3)noc2c1`, the Ki is 11.6 nM at D(2) dopamine receptor, 6.2 nM in series [1], 92.1 nM in series [2] and 312 nM on Histamine H3 receptor.
Consider `CN1CCN(Cc2ccc(OCCCN3CCC(c4noc5cc(F)ccc45)CC3)cc2)CC1`, for which the Ki came out at 1.7 nM at D(2) dopamine receptor; 4.7 nM in series [1]; 719 nM at Histamine H1 receptor; 23.2 nM on D(3) dopamine receptor; 11.9 nM in [2]; 573 nM in [3]. For the same molecule, the Ki stood at 93.3 nM in [5], 332 nM in [4] and 8.2 nM at Histamine H3 receptor. The molecule further returned an IC50 in [6] of 1560 nM.
Turning to `CN1CCN(Cc2ccc(OCCCCN3CCC(c4noc5cc(F)ccc45)CC3)cc2)CC1`, the Ki was 1.9 nM on D(2) dopamine receptor; 4.3 nM in series [1]; 642 nM on Histamine H1 receptor; 37.6 nM on D(3) dopamine receptor; 12.4 nM in series [2]; 426 nM in series [3]. Besides, the Ki in series [5] worked out at 123 nM; in [4] it was 354 nM; at Histamine H3 receptor, 9.2 nM. Moreover, half-maximal inhibition in series [6] (IC50) required 1060 nM.
For the molecule `Fc1ccc2c(C3CCN(CCCOc4ccc(CN5CCCCC5)cc4)CC3)noc2c1`, the Ki turned out to be 10.8 nM on D(2) dopamine receptor, 5.1 nM in series [1], 89.7 nM in series [2] and 270 nM on Histamine H3 receptor.
For the molecule `O=C(CCCN1CCC(c2noc3cc(F)ccc23)CC1)c1cc2c3c(c1)CCN3C(=O)CC2`, the Ki on D(2) dopamine receptor came out at 2.9 nM; in series [1], 0.7 nM; on Histamine H1 receptor, 630 nM; at D(3) dopamine receptor, 1.7 nM; in series [2] it was 8.6 nM; in series [3] it was 616 nM. Further, the Ki in [5] stood at 5.6 nM; in series [4], 43.1 nM.
Regarding `CN1CCN(CCc2ccc(OCCCN3CCC(c4noc5cc(F)ccc45)CC3)cc2)CC1`, the Ki in series [1] was found to be 8.6 nM; in series [2] it was 16.4 nM; on Histamine H3 receptor it was 271 nM.
With `Fc1ccc2c(C3CCN(CCCOc4ccc(CN5CCCC5)cc4Cl)CC3)noc2c1`, the Ki was determined as 14.1 nM at D(2) dopamine receptor, 10.1 nM in [1], 79.2 nM in [2] and 125 nM on Histamine H3 receptor.
